Results: patent US20250340560A1, “SUBSTITUTED PYRAZOLO[1,5-a]PYRIMIDINES AS BRUTON'S TYROSINE KINASE MODULATORS” (BEIGENE SWITZERLAND GMBH, priority 2013, published 2025)
Structures can show the parent of a compound that is named as a salt.

Target: Recombinant Btk (Homo sapiens (Human), UniProt Q06187)
Assay: BTK kinase assay (TR-FRET)
Details: read-out: IC50 (nM) Btk; 1 hour pre-incubation, ATP at Km

Chain of Recombinant Btk (Q06187 whole entry): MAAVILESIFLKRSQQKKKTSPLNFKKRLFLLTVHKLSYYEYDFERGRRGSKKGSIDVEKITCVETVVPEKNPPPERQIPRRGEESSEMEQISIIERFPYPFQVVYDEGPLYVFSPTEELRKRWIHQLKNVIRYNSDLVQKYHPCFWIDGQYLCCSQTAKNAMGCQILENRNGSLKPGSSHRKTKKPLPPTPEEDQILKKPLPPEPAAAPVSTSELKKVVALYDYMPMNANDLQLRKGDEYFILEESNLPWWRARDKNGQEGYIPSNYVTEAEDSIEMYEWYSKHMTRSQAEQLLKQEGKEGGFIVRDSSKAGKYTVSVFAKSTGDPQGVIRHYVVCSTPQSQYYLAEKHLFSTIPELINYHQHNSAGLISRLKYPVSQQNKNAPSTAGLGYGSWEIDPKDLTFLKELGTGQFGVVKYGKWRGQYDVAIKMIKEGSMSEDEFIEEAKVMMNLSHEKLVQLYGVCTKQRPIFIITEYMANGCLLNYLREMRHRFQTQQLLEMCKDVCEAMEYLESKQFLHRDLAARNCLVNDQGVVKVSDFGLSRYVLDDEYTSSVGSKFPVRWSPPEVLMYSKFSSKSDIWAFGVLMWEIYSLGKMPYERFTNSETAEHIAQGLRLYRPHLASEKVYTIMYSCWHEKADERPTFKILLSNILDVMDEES

Row | Compound | IC50 [nM]
1 | C=CC(=O)N1CCC(C2(C)CCNc3c(C(N)=O)c(-c4ccc(Oc5ccccc5)cc4)nn32)CC1 (centres unmarked) [Compound 138, 7-(1-acryloylpiperidin-4-yl)-7-methyl-2-(4-phenoxyphenyl)-4,5,6,7-tetrahydropyrazolo[1,5-a]pyrimidine-3-carboxamide] | 1
2 | C=CC(=O)N1CC(C2CCNc3c(C(N)=O)c(-c4ccc(Oc5ccccc5)c(Cl)c4)nn32)C1 (centres unmarked) [Compound 139, 7-(1-acryloylazetidin-3-yl)-2-(3-chloro-4-phenoxyphenyl)-4,5,6,7-tetrahydropyrazolo[1,5-a]pyrimidine-3-carboxamide] | 0.44
3 | C=CC(=O)N1CC(C2CCNc3c(C(N)=O)c(-c4ccc(Oc5ccccc5)c(OC)c4)nn32)C1 (centres unmarked) [Compound 140, 7-(1-acryloylazetidin-3-yl)-2-(3-methoxy-4-phenoxyphenyl)-4,5,6,7-tetrahydropyrazolo[1,5-a]pyrimidine-3-carboxamide formate] | 3000
4 | C=CC(=O)N1CC(C2CCNc3c(C(N)=O)c(-c4ccc(OCCc5ccccc5)cc4)nn32)C1 (centres unmarked) [Compound 141, 7-(1-acryloylazetidin-3-yl)-2-(4-phenethoxyphenyl)-4,5,6,7-tetrahydropyrazolo[1,5-a]pyrimidine-3-carboxamide] | 7
5 | C=CC(=O)NCC1CCNc2c(C(N)=O)c(-c3ccc(OCc4ccccc4)c(OC)c3)nn21 (centres unmarked) [Compound 142, 7-(acrylamidomethyl)-2-(4-(benzyloxy)-3-methoxyphenyl)-4,5,6,7-tetrahydropyrazolo[1,5-a]pyrimidine-3-carboxamide] | 54
6 | C=CC(=O)NCC1(C)CCNc2c(C(N)=O)c(-c3ccc(Oc4ccccc4)cc3)nn21 (centres unmarked) [Compound 143, 7-(acrylamidomethyl)-7-methyl-2-(4-phenoxyphenyl)-4,5,6,7-tetrahydropyrazolo[1,5-a]pyrimidine-3-carboxamide] | 0.89
7 | C=CC(=O)N1CCC(C2CCNc3c(C(N)=O)c(-c4ccccc4)nn32)CC1 (centres unmarked) [Compound 144, 7-(1-acryloylpiperidin-4-yl)-2-phenyl-4,5,6,7-tetrahydropyrazolo[1,5-a]pyrimidine-3-carboxamide trifluoroacetate] | 140
8 | C=CC(=O)N1CC(C2CCNc3c(C(N)=O)c(-c4ccc(Cl)cc4)nn32)C1 (centres unmarked) [Compound 145, 7-(1-acryloylazetidin-3-yl)-2-(4-chlorophenyl)-4,5,6,7-tetrahydropyrazolo[1,5-a]pyrimidine-3-carboxamide] | 72
9 | C=CC(=O)Nc1ccccc1C1CCNc2c(C(N)=O)c(-c3ccc(OCc4ccccn4)c(Cl)c3)nn21 (centres unmarked) [Compound 146, 7-(2-Acrylamidophenyl)-2-(3-chloro-4-(pyridin-2-ylmethoxy)phenyl)-4,5,6,7-tetrahydropyrazolo[1,5-a]pyrimidine-3-carboxamide] | 1.3
10 | C=CC(=O)Nc1cc(Cl)ccc1C1CCNc2c(C(N)=O)c(-c3ccc(OCC4CC4)cc3)nn21 (centres unmarked) [Compound 147, 7-(2-Acrylamido-4-chlorophenyl)-2-(4-(cyclopropylmethoxy)phenyl)-4,5,6,7-tetrahydropyrazolo[1,5-a]pyrimidine-3-carboxamide] | 2.7
11 | C=CC(=O)Nc1cc(C)ccc1C1CCNc2c(C(N)=O)c(-c3ccc(OCC4CC4)cc3)nn21 (centres unmarked) [Compound 148, 7-(2-Acrylamido-4-methylphenyl)-2-(4-(cyclopropylmethoxy)phenyl)-4,5,6,7-tetrahydropyrazolo[1,5-a]pyrimidine-3-carboxamide] | 5.6
12 | C=CC(=O)Nc1ccccc1C1CCNc2c(C(N)=O)c(-c3ccccc3)nn21 (centres unmarked) [Compound 150, 7-(2-Acrylamidophenyl)-2-phenyl-4,5,6,7-tetrahydropyrazolo[1,5-a]pyrimidine-3-carboxamide] | 4.7
13 | C=CC(=O)Nc1ccccc1C1CCNc2c(C(N)=O)c(-c3ccc(F)c(Br)c3)nn21 (centres unmarked) [Compound 152, 7-(2-Acrylamidophenyl)-2-(3-bromo-4-fluorophenyl)-4,5,6,7-tetrahydropyrazolo[1,5-a]pyrimidine-3-carboxamide] | 1.2
14 | NC(=O)c1c(-c2ccc(F)c(Cl)c2)nn2c1NCCC2c1ccccc1NC(=O)/C=C/CN1CCCCC1 (centres unmarked) [Compound 153, (E)-2-(3-Chloro-4-fluorophenyl)-7-(2-(4-(piperidin-1-yl)but-2-enamido)phenyl)-4,5,6,7-tetrahydropyrazolo[1,5-a]pyrimidine-3-carboxamide] | 6.1
15 | C=CC(=O)Nc1ccccc1C1CCNc2c(C(N)=O)c(-c3ccc(Cl)c(F)c3)nn21 (centres unmarked) [Compound 154, 7-(2-Acrylamidophenyl)-2-(4-chloro-3-fluorophenyl)-4,5,6,7-tetrahydropyrazolo[1,5-a]pyrimidine-3-carboxamide] | 1.2
16 | C=CC(=O)Nc1ccccc1C1CCNc2c(C(N)=O)c(-c3cccc(Cl)c3)nn21 (centres unmarked) [Compound 155, 7-(2-Acrylamidophenyl)-2-(3-chlorophenyl)-4,5,6,7-tetrahydropyrazolo[1,5-a]pyrimidine-3-carboxamide] | 0.96

Row | Compound | IC50 [nM]
17 | C=CC(=O)Nc1ccccc1C1CCNc2c(C(N)=O)c(-c3ccc(Cl)c(Cl)c3)nn21 (centres unmarked) [Compound 156, 7-(2-Acrylamidophenyl)-2-(3,4-dichlorophenyl)-4,5,6,7-tetrahydropyrazolo[1,5-a]pyrimidine-3-carboxamide] | 0.55
18 | C=CC(=O)Nc1ccccc1C1CCNc2c(C(N)=O)c(-c3ccc(F)c(C)c3)nn21 (centres unmarked) [Compound 157, 7-(2-Acrylamidophenyl)-2-(4-fluoro-3-methylphenyl)-4,5,6,7-tetrahydropyrazolo[1,5-a]pyrimidine-3-carboxamide] | 0.38
19 | C=CC(=O)Nc1ccccc1C1CCNc2c(C(N)=O)c(-c3cc(F)c(F)c(Cl)c3)nn21 (centres unmarked) [Compound 158, 7-(2-Acrylamidophenyl)-2-(3-chloro-4.5-difluorophenyl)-4,5,6,7-tetrahydropyrazolo[1,5-a]pyrimidine-3-carboxamide] | 2.9
20 | C=CC(=O)Nc1ccccc1C1CCNc2c(C(N)=O)c(-c3ccc(Cl)c(OC)c3)nn21 (centres unmarked) [Compound 160, 7-(2-Acrylamidophenyl)-2-(4-chloro-3-methoxyphenyl)-4,5,6,7-tetrahydropyrazolo[1,5-a]pyrimidine-3-carboxamide] | 0.49
21 | C=CC(=O)Nc1ccccc1C1CCNc2c(C(N)=O)c(-c3ccc(C(F)(F)F)c(Cl)c3)nn21 (centres unmarked) [Compound 162, 7-(2-Acrylamidophenyl)-2-(3-chloro-4-(trifluoromethyl)phenyl)-4,5,6,7-tetrahydropyrazolo[1,5-a]pyrimidine-3-carboxamide] | 2.1
22 | C=CC(=O)Nc1ccccc1C1CCNc2c(C(N)=O)c(-c3ccc(Cl)c(C(F)(F)F)c3)nn21 (centres unmarked) [Compound 163, 7-(2-Acrylamidophenyl)-2-(4-chloro-3-(trifluoromethyl)phenyl)-4,5,6,7-tetrahydropyrazolo[1,5-a]pyrimidine-3-carboxamide] | 7.3
23 | COc1cc(-c2nn3c(c2C(N)=O)NCCC3c2ccccc2NC(=O)/C=C/CN(C)C)ccc1C (centres unmarked) [Compound 165, (E)-7-(2-(4-(Dimethylamino)but-2-enamido)phenyl)-2-(3-methoxy-4-methylphenyl)-4,5,6,7-tetrahydropyrazolo[1,5-a]pyrimidine-3-carboxamide] | 1.6
24 | C=CC(=O)Nc1ccccc1C1CCNc2c(C(N)=O)c(-c3cccc(OC)c3)nn21 (centres unmarked) [Compound 166, 7-(2-Acrylamidophenyl)-2-(3-methoxyphenyl)-4,5,6,7-tetrahydropyrazolo[1,5-a]pyrimidine-3-carboxamide] | 2.7
25 | C=CC(=O)Nc1ccccc1C1CCNc2c(C(N)=O)c(-c3cc(OC)c(OC)c(OC)c3)nn21 (centres unmarked) [Compound 167, 7-(2-Acrylamidophenyl)-2-(3,4,5-trimethoxyphenyl)-4,5,6,7-tetrahydropyrazolo[1,5-a]pyrimidine-3-carboxamide] | 2.4
26 | C=CC(=O)Nc1ccccc1C1CCNc2c(C(N)=O)c(-c3ccc(OC)c(OC)c3)nn21 (centres unmarked) [Compound 168, 7-(2-Acrylamidophenyl)-2-(3,4-dimethoxyphenyl)-4,5,6,7-tetrahydropyrazolo[1,5-a]pyrimidine-3-carboxamide] | 3.2
27 | C=CC(=O)Nc1ccccc1C1CCNc2c(C(N)=O)c(-c3cc(Cl)c(OC)c(Cl)c3)nn21 (centres unmarked) [Compound 169, 7-(2-Acrylamidophenyl)-2-(3,5-dichloro-4-methoxyphenyl)-4,5,6,7-tetrahydropyrazolo[1,5-a]pyrimidine-3-carboxamide] | 0.15
28 | NC(=O)c1c(-c2ccc(Oc3ccccc3)cc2)nn2c1NCCC2C1CCN(C(=O)/C=C/CN2CCCCC2)CC1 (centres unmarked) [Compound 170, (E)-2-(4-Phenoxyphenyl)-7-(1-(4-(piperidin-1-yl)but-2-enoyl)piperidin-4-yl)-4,5,6,7-tetrahydropyrazolo[1,5-a]pyrimidine-3-carboxamide] | 3.8
29 | C=CC(=O)N1CCC(C2CCNc3c(C(N)=O)c(-c4ccc(C)c(OC)c4)nn32)CC1 (centres unmarked) [Compound 174, 7-(1-Acryloylpiperidin-4-yl)-2-(3-methoxy-4-methylphenyl)-4,5,6,7-tetrahydropyrazolo[1,5-a]pyrimidine-3-carboxamide] | 4.8
30 | C=CC(=O)N1CC(C2(C)CCNc3c(C(N)=O)c(-c4ccc(Oc5ccccc5)cc4)nn32)C1 (centres unmarked) [Compound 175, 7-(1-Acryloylazetidin-3-yl)-7-methyl-2-(4-phenoxyphenyl)-4,5,6,7-tetrahydropyrazolo[1,5-a]pyrimidine-3-carboxamide] | 1.2
31 | NC(=O)c1c(-c2ccc(Oc3ccccc3)cc2)nn2c1NCC[C@H]2C1CCN(C(=O)CCCl)CC1 [Compound 177, (S)-7-(1-(3-chloropropanoyl)piperidin-4-yl)-2-(4-phenoxyphenyl)-4,5,6,7-tetrahydropyrazolo[1,5-a]pyrimidine-3-carboxamide] | 5.7
32 | CC#CC(=O)N1CCC(C2CCNc3c(C(N)=O)c(-c4ccc(Oc5ccc(F)cc5F)cc4)nn32)CC1 (centres unmarked) [Compound 179, 7-(1-(But-2-ynoyl)piperidin-4-yl)-2-(4-(2,4-difluorophenoxy)phenyl)-4,5,6,7-tetrahydropyrazolo[1,5-a]pyrimidine-3-carboxamide] | 48
